In the supplement of paper PMC11208160:

Experiment: recombinant barcode read abundance after kanamycin selection (control-corrected) (log10(CPM+1)); higher = more efficient recombination; sequences stand for … in AGTGCAGAGAAAATCGGCCAGTTTTCTCTGCCTGCAGTCCGCATGCCGT…AGATTTATGCAGCGGACTGCCTTTCTCCCAAAGTGATAAACCGGACAGTATCATGGACCGGTTTTCCCGGTAATCCGTATTTGCAAGGTTGGTTTCACT; site = the 11-nt target
How it was run: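 Oligos holding a promoter, target, barcode and the J23119-driven first 104 bases of the bridge RNA were Gibson-cloned into a vector that supplied the other 73 bp plus a T7-inducible recombinase. This library was co-electroporated with a donor plasmid into E. coli. Two replicates went on chloramphenicol/ampicillin LB agar (control) and two on chloramphenicol/ampicillin/kanamycin with 0.1 mM IPTG. Recombination efficiency is read from averaged, control-corrected barcode counts per million at recombinant junctions, reported as log10(CPM+1).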
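Also: IS621 recombinase and bridge RNA in Escherichia coli cells.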

Sequence	recombinant barcode read abundance (log10)
TCCAACCCTTGGGTTCTAACCTGTTGCTG (site TCCAACCCTCA)	1.65
TCCAACCCTTGGGTTCTAACCTGTTGCTT (site CAGGGGACTGT)	0.0296
TCCAACCCTTGGGTTCTAACCTGTTGCTT (site TCCAACCCTAA)	0.391
TCCAACTCTTGGGTTCTAACCTGTTGCAC (site CATCCTACTAG)	0.0443
TCCAACTCTTGGGTTCTAACCTGTTGCAC (site TCCAACTCTGT)	0.903
TCCAAGGCTTGGGTTCTAACCTGTTGCTA (site CTGCGTACTCG)	0.0788
TCCAAGGCTTGGGTTCTAACCTGTTGCTA (site TCCAAGGCTTA)	0.275
TCCAATACTTGGGTTCTAACCTGTTGCCG (site TCCAACACTCG)	0.0602
TCCAATACTTGGGTTCTAACCTGTTGCCG (site TCCAATACTCG)	0.269
TCCAGCTCTTGGGTTCTAACCTGTTGCCT (site ACCAGATCTAG)	0.0273
TCCAGCTCTTGGGTTCTAACCTGTTGCCT (site TCCAGCTCTAG)	0.631
TCCAGGGCTTGGGTTCTAACCTGTTGCCT (site TCCAGGGCTAG)	0.185
TCCAGGGCTTGGGTTCTAACCTGTTGCCT (site TCCTGGCCTAG)	0.0786
TCCAGTACTTGGGTTCTAACCTGTTGCAT (site TCCAGTACTAT)	0.351
TCCAGTACTTGGGTTCTAACCTGTTGCAT (site TCCCGTACTAT)	0.0322
TCCAGTACTTGGGTTCTAACCTGTTGCAT (site TCCGGTACTAT)	0.564
TCCAGTACTTGGGTTCTAACCTGTTGCAT (site TCCTGTACTAT)	0.105
TCCCATACTTGGGTTCTAACCTGTTGCGA (site CTTGGGTCTAT)	0.0603

Sequence	recombinant barcode read abundance (log10)
TCCCATACTTGGGTTCTAACCTGTTGCGA (site TCCCATACTTC)	1.57
TCCCATCCTTGGGTTCTAACCTGTTGCCT (site TCCCATACTAG)	0.0689
TCCCATCCTTGGGTTCTAACCTGTTGCCT (site TCCCATCCTAG)	0.757
TCCCATCCTTGGGTTCTAACCTGTTGCCT (site TCCCATGCTAG)	0.0237
TCCCATCCTTGGGTTCTAACCTGTTGCCT (site TCCCATTCTAG)	0.592
TCCCATCCTTGGGTTCTAACCTGTTGCGT (site TCCCATCCTAC)	2.38
TCCCATCCTTGGGTTCTAACCTGTTGCGT (site TCCTATCCTAC)	0.0583
TCCCGTACTTGGGTTCTAACCTGTTGCAT (site TCCAGTACTAT)	0.382
TCCCGTACTTGGGTTCTAACCTGTTGCAT (site TCCCGTACTAT)	0.43
TCCCGTACTTGGGTTCTAACCTGTTGCAT (site TCCGGTACTAT)	0.0638
TCCCGTACTTGGGTTCTAACCTGTTGCAT (site TCCTGTACTAT)	0.159
TCCCTATCTTGGGTTCTAACCTGTTGCCT (site TACCTATCTAG)	0.223
TCCCTATCTTGGGTTCTAACCTGTTGCCT (site TCCCTATCTAG)	0.758
TCCCTATCTTGGGTTCTAACCTGTTGCCT (site TGCCTATCTAG)	0.0386
TCCCTATCTTGGGTTCTAACCTGTTGCCT (site TTCCTATCTAG)	0.0651
TCCGACCCTTGGGTTCTAACCTGTTGCAC (site TCCGACCCTGT)	2.54
TCCGACCCTTGGGTTCTAACCTGTTGCAC (site TCCGTCCCTAT)	0.0486
TCCGAGACTTGGGTTCTAACCTGTTGCCG (site TCCGAGACTAG)	0.541
